This note sets out measurements from patent US9238647B2, “P2X3 receptor antagonists for treatment of pain” (Merck Sharp & Dohme Corp., priority 2009, dated 2016).

This test concerns the target T1, human P2X3 (Homo sapiens, UniProt P56373).
T1 construct: expressed in transfected cells
T1 sequence (P56373 1-397): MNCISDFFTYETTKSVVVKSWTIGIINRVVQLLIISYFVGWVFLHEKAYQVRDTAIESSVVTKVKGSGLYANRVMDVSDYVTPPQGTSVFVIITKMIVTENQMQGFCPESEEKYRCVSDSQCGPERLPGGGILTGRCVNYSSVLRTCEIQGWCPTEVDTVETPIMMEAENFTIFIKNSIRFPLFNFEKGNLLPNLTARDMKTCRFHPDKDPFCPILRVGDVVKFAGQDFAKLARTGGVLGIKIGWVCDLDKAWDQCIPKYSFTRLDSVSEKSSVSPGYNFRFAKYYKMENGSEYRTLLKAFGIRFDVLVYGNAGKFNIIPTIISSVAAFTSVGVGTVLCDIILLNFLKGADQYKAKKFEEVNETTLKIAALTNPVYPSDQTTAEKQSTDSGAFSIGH
As to the kind of experiment: Intracellular Calcium Measurement to Assess Antagonist Affinity (FLIPR, Fluo-4, α,β-meATP agonist). To be noted: cells expressing human P2X3; agonist α,β-meATP at EC50; antagonist added 10 min before agonist. In kind it is cell-based. From the text:
Generation of a Human P2X3 and P2X2/3 Stable Cell Line—Human P2X3 receptor cDNA (Accession number NM_002559) was subcloned as a 5′XhoI and 3′HindIII fragment into the expression vector pcDNA5/FRT (Invitrogen). Human P2X2 receptor cDNA (Accession number NM_174873) was subcloned as a 5′EcoRI and 3′NotI fragment into the expression vector pIRESneo2 (BD Biosciences Clontech). The human P2X3 expression construct was transfected using Lipofectamine 2000 (Invitrogen) into Flp-in-293 cells (Invitrogen) according to the manufacturer's directions. Cells positive for flp-mediated recombination of […] P2X3 were selected using 150 μg/ml hygromycin. […]
Intracellular Calcium Measurement to Assess Antagonist Affinity—A fluorescent imaging plate reader (FLIPR; Molecular Devices) was used to monitor intracellular calcium levels using the calcium-chelating dye Fluo-4 (Molecular Probes). The excitation and emission wavelengths used to monitor fluorescence were 488 nm and 530 nm, respectively. […] During this period fluorescence data is collected at 3 sec intervals followed by 10 sec intervals. […] Following agonist addition fluorescence was measured at 5 sec intervals and analyzed based on the increase in peak relative fluorescence units (RFU) compared to the basal fluorescence. […]
In general terms: A change in cytosolic calcium serves as a functional read-out for many receptors and channels.

In general, IC50 refers to the point on the concentration scale where inhibition reaches its midpoint. Consider `Cc1ccc(-c2cc(C(=O)N[C@H](C)c3ccc(C(F)(F)F)nc3)cc3nncn23)cc1` [Example 4.3, 5-(4-Methylphenyl)-N-{(1R)-1-[6-(trifluoromethyl)pyridin-3-yl]ethyl}[1,2,4]triazolo[4,3-a]pyridine-7-carboxamide], for which the IC50 turned out to be 200 nM.
